Test results reported in ChEMBL document CHEMBL1201862, “PubChem BioAssay data set” (2004).
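Exposure lasted 48 hours, with cells grown in 96-well plates and compounds tested at five concentrations. The concentration for 50% growth inhibition is given as GI50.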 Active and inactive are the calls of the source. No stated cut-off is given here; in the data, active = GI50 up to about 1.1 µM and inactive = higher.

Experiments:
Assay in all cases: growth of human tumour cells (NCI), 48 h
[1] = test system: UACC-257
[2] = test system: K562
[3] = test system: CCRF-CEM
[4] = test system: COLO 205
[5] = test system: RPMI-8226
[6] = test system: TK-10
[7] = test system: HL-60
[8] = test system: CAKI-1
[9] = test system: SNB-19
[10] = test system: IGROV-1
[11] = test system: SK-MEL-2
[12] = test system: SN12C
[13] = test system: M19-MEL
[14] = test system: RXF 393
[15] = test system: NCI-H226
[16] = test system: HOP-92
[17] = test system: LOX IMVI
[18] = test system: HCT-15
[19] = test system: DU-145
[20] = test system: Hs-578T

Row | SMILES | GI50 [1] | GI50 [2] | GI50 [3] | GI50 [4] | GI50 [5] | GI50 [6] | GI50 [7] | GI50 [8] | GI50 [9] | GI50 [10] | GI50 [11] | GI50 [12] | GI50 [13] | GI50 [14] | GI50 [15] | GI50 [16] | GI50 [17] | GI50 [18] | GI50 [19] | GI50 [20]
1 | C[N+](C)(C)CC(=O)N/N=C(/Cc1cc(=O)oc2cc(O)ccc12)C(=O)Nc1ccc(Cl)cc1 | > 100 µM (inactive) | > 100 µM (inactive) | > 100 µM (inactive) | > 100 µM (inactive) | > 100 µM (inactive) | > 100 µM (inactive) | > 100 µM (inactive) | > 100 µM (inactive) | > 100 µM (inactive) | > 100 µM (inactive) | > 100 µM (inactive) | > 100 µM (inactive) | > 100 µM (inactive) | > 100 µM (inactive) |  |  |  |  |  | 
2 | CN/N=C(\C)c1c(O)cc(C)oc1=O | > 100 µM (inactive) | > 100 µM (inactive) | > 100 µM (inactive) |  |  | > 100 µM (inactive) | > 100 µM (inactive) | > 100 µM (inactive) | > 100 µM (inactive) |  | > 100 µM (inactive) | > 100 µM (inactive) | > 100 µM (inactive) |  | > 100 µM (inactive) | > 100 µM (inactive) | > 100 µM (inactive) | > 100 µM |  | 
3 | O=C(/C=C\c1cccc2ccccc12)c1ccc(F)cc1 | 17.6 µM (inactive) | 11.1 µM (inactive) | 13.6 µM (inactive) | 19 µM (inactive) | 4.21 µM (inactive) | 15.3 µM (inactive) | 20.6 µM (inactive) | 17.3 µM (inactive) | 16.6 µM (inactive) | 15.3 µM (inactive) |  | 17.3 µM (inactive) | 19.6 µM (inactive) |  | 35.9 µM (inactive) | 11.9 µM (inactive) |  | 15.1 µM |  | 
4 | CCOC(=O)c1cc(/C=C/C(C)=C/C(=O)OC)n(C)c1C | 78.2 µM (inactive) | 25.8 µM (inactive) | 61.5 µM (inactive) | > 100 µM (inactive) | 36.2 µM (inactive) | > 100 µM (inactive) | 23.9 µM (inactive) | > 100 µM (inactive) | > 100 µM (inactive) | > 100 µM (inactive) |  | > 100 µM (inactive) | > 100 µM (inactive) |  | > 100 µM (inactive) | > 100 µM (inactive) | > 100 µM (inactive) | 63.8 µM |  | 
5 | CC1(C)O[C@@H](CC/C=C/CO)[C@H](CC/C=C/CO)O1 | > 100 µM (inactive) | > 100 µM (inactive) | > 100 µM (inactive) | > 100 µM (inactive) | > 100 µM (inactive) | > 100 µM (inactive) | 63.8 µM (inactive) | > 100 µM (inactive) | > 100 µM (inactive) | > 100 µM (inactive) | > 100 µM (inactive) | > 100 µM (inactive) | > 100 µM (inactive) |  | > 100 µM (inactive) | > 100 µM (inactive) | > 100 µM (inactive) | > 100 µM |  | 
6 | CC(=O)C=C1Nc2ccccc2N1 | > 100 µM (inactive) | > 100 µM (inactive) | > 100 µM (inactive) | > 100 µM (inactive) | > 100 µM (inactive) |  | > 100 µM (inactive) | > 100 µM (inactive) | > 100 µM (inactive) | > 100 µM (inactive) | > 100 µM (inactive) | > 100 µM (inactive) | > 100 µM (inactive) | > 100 µM (inactive) | > 100 µM (inactive) |  | > 100 µM (inactive) | > 100 µM |  | 
7 | CC[N+](CC)(CC)Cc1cc2ccccc2n1C(=O)OC | > 100 µM (inactive) | > 100 µM (inactive) | > 100 µM (inactive) | > 100 µM (inactive) | > 100 µM (inactive) | > 100 µM (inactive) | > 100 µM (inactive) | > 100 µM (inactive) | > 100 µM (inactive) | > 100 µM (inactive) | > 100 µM (inactive) |  | > 100 µM (inactive) |  | > 100 µM (inactive) | > 100 µM (inactive) |  | > 100 µM |  | 
8 | CC(C)NCCNC(=O)c1ccccc1Nc1c(Cl)cccc1Cl | 10.3 µM (inactive) | 6.95 µM (inactive) | 10.5 µM (inactive) | 11.6 µM (inactive) | 3.81 µM (inactive) | 11.8 µM (inactive) | 8.71 µM (inactive) |  | 15.3 µM (inactive) | 16 µM (inactive) |  | 13.2 µM (inactive) | 8.38 µM (inactive) | 5.08 µM (inactive) | 13.5 µM (inactive) |  | 7.24 µM (inactive) | 13 µM |  | 
9 | CCc1cccc(C)c1N1C(=O)C(=O)C(c2nc3ccccc3o2)C(=O)C1=O | > 100 µM (inactive) | > 100 µM (inactive) | > 100 µM (inactive) | > 100 µM (inactive) | > 100 µM (inactive) | > 100 µM (inactive) | > 100 µM (inactive) | > 100 µM (inactive) | > 100 µM (inactive) | > 100 µM (inactive) | > 100 µM (inactive) | > 100 µM (inactive) | > 100 µM (inactive) |  | > 100 µM (inactive) | > 100 µM (inactive) |  | > 100 µM |  | 
10 | O=C(O)CCN(CCCN(CCC(=O)O)CCC(=O)O)CCC(=O)O |  | > 100 µM (inactive) | > 100 µM (inactive) | > 100 µM (inactive) | > 100 µM (inactive) | > 100 µM (inactive) | > 100 µM (inactive) | > 100 µM (inactive) |  | > 100 µM (inactive) | > 100 µM (inactive) | > 100 µM (inactive) | > 100 µM (inactive) |  |  | > 100 µM (inactive) | > 100 µM (inactive) | > 100 µM |  | 
11 | CC(C)N(C(=O)C12C3C4C1C1C2C3C41C(O)C(C)(C)C)C(C)C (stereo not drawn) |  | > 50 µM (inactive) | > 50 µM (inactive) | > 50 µM (inactive) |  |  | > 50 µM (inactive) | > 50 µM (inactive) | > 50 µM (inactive) | > 50 µM (inactive) |  | > 50 µM (inactive) | > 50 µM (inactive) |  |  | 34.7 µM (inactive) |  | > 50 µM |  | 
12 | O=C1NC(Nc2cccc(Cl)c2)=N/C1=C\c1ccc(Cl)c(Cl)c1 | 8.07 µM (inactive) | 3.33 µM (inactive) | 3.45 µM (inactive) | 3.88 µM (inactive) | 3.99 µM (inactive) | 9.35 µM (inactive) | 1.95 µM (inactive) | 4.6 µM (inactive) | 7.74 µM (inactive) | 5.66 µM (inactive) | 2.44 µM (inactive) | 2.54 µM (inactive) |  | 3.21 µM (inactive) | 3.44 µM (inactive) | 3.48 µM (inactive) | 2.14 µM (inactive) | 5.28 µM | 7.52 µM (inactive) | 3.04 µM (inactive)
13 | CN(C(=O)C12C3C4C1C1C4(C(=O)C45C6C7C4C4C5C6C74C)C3C12C)C(C)(C)C (stereo not drawn) | 32.5 µM (inactive) | 26.4 µM (inactive) | 32.1 µM (inactive) | 35.4 µM (inactive) |  | > 100 µM (inactive) | 14.8 µM (inactive) | > 100 µM (inactive) | 69.5 µM (inactive) | > 100 µM (inactive) | > 100 µM (inactive) | > 100 µM (inactive) | 45.9 µM (inactive) |  | 72.3 µM (inactive) | 28.6 µM (inactive) | 48.1 µM (inactive) | 28.3 µM |  | 
